Test systems include SF-539 CNS; SW-620 colon; A549 NSCLC; SK-MEL-28 melanoma; KM20L2 colon; SF-295 CNS; DMS 273 small cell lung; UO-31 renal; SNB-75 CNS; SF-268 CNS; RPMI-8226 leukemia.
Experiment in all cases: inhibition of tumour cell growth, NCI panel, 48 h

Each structure is given as a SMILES string.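 Cultured in 96-well plates, cells were exposed to test compound for 48 hours across five concentrations. At the GI50, growth is halved. TGI marks complete inhibition of growth.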

For `Cc1cn([C@@H]2C[C@H](CO)[C@@H](O)C2)c(=O)[nH]c1=O`, the TGI with SF-539 CNS, in the assay with SW-620 colon, in the assay on A549 NSCLC, in the assay with SK-MEL-28 melanoma, in the assay on KM20L2 colon and with SF-295 CNS was more than 100 µM in each case. The TGI with DMS 273 small cell lung, with UO-31 renal, with SNB-75 CNS and with SF-268 CNS was more than 100 µM in each case.
On to `O=C(CN(c1ccccc1)c1ccccc1)N1c2ccccc2C2C=CC=CC21` (stereo unspecified), for which the TGI in the assay with SF-539 CNS is 43.8 µM; with SW-620 colon, more than 53.5 µM; in the assay on A549 NSCLC, more than 54.9 µM; with SK-MEL-28 melanoma it was more than 56 µM; in the assay on KM20L2 colon, 55.4 µM; in the assay with RPMI-8226 leukemia, more than 28.1 µM. Further, the TGI with SF-295 CNS was 58.8 µM; with DMS 273 small cell lung, more than 60.3 µM; in the assay with UO-31 renal, more than 49.9 µM; in the assay with SNB-75 CNS, 52.3 µM; in the assay on SF-268 CNS, more than 57 µM.
In the case of `COC(=O)/C(=N/O)C(C(=O)C=C(C)C)C(=O)C(=O)Nc1nc2ccc([N+](=O)[O-])cc2s1` (stereo unspecified), the TGI in the assay with SF-539 CNS was 78.3 µM; in the assay with SW-620 colon, more than 100 µM; in the assay with A549 NSCLC it was more than 100 µM; in the assay on SK-MEL-28 melanoma, more than 100 µM; with KM20L2 colon it was more than 100 µM; in the assay on RPMI-8226 leukemia, more than 100 µM. The TGI in the assay on SF-295 CNS is more than 100 µM; with DMS 273 small cell lung, more than 100 µM; in the assay on UO-31 renal, 92.8 µM; in the assay on SF-268 CNS it was 99.2 µM.
As to `COc1ccc(-c2oc(/C=N/NC(N)=S)c([N+](=O)[O-])c2-c2ccc(OC)c(OC)c2)cc1OC`, the TGI in the assay with SF-539 CNS is 67.6 µM; in the assay with SW-620 colon, more than 100 µM; in the assay on A549 NSCLC, more than 100 µM; in the assay with SK-MEL-28 melanoma, 86.1 µM; in the assay on KM20L2 colon, 92.4 µM; in the assay with RPMI-8226 leukemia, 41.5 µM. The TGI in the assay with SF-295 CNS turned out to be 53.4 µM; in the assay with SNB-75 CNS, 72.3 µM; in the assay with SF-268 CNS it was 58 µM.
As to `Nc1nc(N)c(N=O)c(Nc2ccc(Br)cc2)n1`, the TGI in the assay with SF-539 CNS was 56.5 µM; with SW-620 colon, more than 100 µM; in the assay with A549 NSCLC it was more than 100 µM; in the assay on SK-MEL-28 melanoma, 68.6 µM; in the assay with KM20L2 colon it was 95.7 µM; with SF-295 CNS, more than 100 µM. In addition, the TGI in the assay on DMS 273 small cell lung was 79.5 µM; in the assay with SNB-75 CNS, 40.3 µM; in the assay on SF-268 CNS it was 57.1 µM.
On to `CC(=O)OCC1OC(n2cc(I)c(=O)[nH]c2=O)C(OC(C)=O)C(OC(C)=O)C1OC(C)=O` (stereo unspecified), for which the TGI in the assay with SW-620 colon, with A549 NSCLC, in the assay with SK-MEL-28 melanoma, with KM20L2 colon, with RPMI-8226 leukemia and with SF-295 CNS was more than 100 µM in each case. The TGI with DMS 273 small cell lung, in the assay with UO-31 renal, in the assay on SNB-75 CNS and in the assay on SF-268 CNS was more than 100 µM in each case.
In the case of `COc1cc2cc(Oc3ccc(NC(=O)c4cc(C(F)(F)F)cc(C(F)(F)F)c4)cc3)c(C)nc2cc1OC`, the GI50 was more than 50 µM in the assay on SF-539 CNS; 4.35 µM in the assay on SW-620 colon; 3.08 µM with A549 NSCLC; more than 50 µM in the assay with SK-MEL-28 melanoma; 1.57 µM in the assay on RPMI-8226 leukemia; 1.64 µM with SF-295 CNS. The results for the GI50 in the assay with UO-31 renal, with SNB-75 CNS and with SF-268 CNS were 2.6 µM, 41.5 µM and more than 50 µM, respectively. The TGI with SF-539 CNS, in the assay on SW-620 colon, in the assay on A549 NSCLC, in the assay on SK-MEL-28 melanoma, with RPMI-8226 leukemia and in the assay with SF-295 CNS was more than 50 µM in each case. For the same molecule, the TGI in the assay on UO-31 renal, in the assay with SNB-75 CNS and in the assay with SF-268 CNS was more than 50 µM throughout.
For `N#CC1=C(c2ccccc2)NNC(c2ccc(Cl)cc2)CC1=O` (stereo unspecified), the TGI in the assay with SW-620 colon was more than 100 µM; in the assay with A549 NSCLC it was more than 100 µM; in the assay on SK-MEL-28 melanoma, more than 100 µM; in the assay with KM20L2 colon it was 61.2 µM; with RPMI-8226 leukemia, more than 100 µM; with SF-295 CNS, 73.1 µM. Moreover, the TGI in the assay on SNB-75 CNS was 41.7 µM; in the assay on SF-268 CNS, more than 100 µM.
For `CC(C)=CCC/C(C)=C/COC(C)(C)C1=CCC(C)CC1` (stereo unspecified) (tested in a mixture with another compound), the TGI in the assay on SF-539 CNS was 29.3 µM; with SW-620 colon it was more than 100 µM; in the assay with A549 NSCLC, more than 100 µM; in the assay with SK-MEL-28 melanoma it was more than 100 µM; with RPMI-8226 leukemia it was more than 100 µM; in the assay on SF-295 CNS it was more than 100 µM. For the same molecule, the TGI in the assay with UO-31 renal, with SNB-75 CNS and in the assay with SF-268 CNS was more than 100 µM throughout.
Take `CCC1=CC2CN3Cn4c(c(COCc5c6n(c7ccccc57)CN5CC7C=C(CC)C5C6(C(=O)OC)C7)c5ccccc54)C(C(=O)OC)(C2)C13`: the TGI in the assay with SW-620 colon, in the assay on A549 NSCLC, with SK-MEL-28 melanoma, with KM20L2 colon, in the assay on RPMI-8226 leukemia and in the assay on SF-295 CNS was more than 100 µM in each case. The TGI in the assay on DMS 273 small cell lung, in the assay with UO-31 renal and in the assay with SF-268 CNS was more than 100 µM each time.
Turning to `CC(O)CCCOC(c1ccccc1)(c1ccccc1)c1ccccc1` (stereo unspecified), the TGI in the assay with SF-539 CNS was 31.2 µM; with SW-620 colon, 32.3 µM; in the assay on A549 NSCLC, 27.3 µM; with SK-MEL-28 melanoma it was 30.1 µM; with KM20L2 colon, 22.3 µM; in the assay with RPMI-8226 leukemia, more than 55.6 µM. In addition, the TGI in the assay with SF-295 CNS was 27.4 µM; in the assay on UO-31 renal it was 26.7 µM; with SNB-75 CNS it was 25.8 µM; in the assay on SF-268 CNS, 29.8 µM.
As to `O=C(Cc1nc2c3c(ccc2[nH]c1=O)C(=O)c1ccccc1C3=O)C(=O)Nc1ccccc1[N+](=O)[O-]`, the TGI with SF-539 CNS was 34.6 µM; in the assay on SW-620 colon it was 28.6 µM; in the assay on A549 NSCLC, more than 100 µM; with SK-MEL-28 melanoma it was 30.3 µM; with KM20L2 colon, 39.6 µM; with RPMI-8226 leukemia, 41.1 µM. The TGI in the assay on UO-31 renal was more than 100 µM; with SF-268 CNS, 31.5 µM.
